Laboratory results published in paper PMC5349141, “Polyamines directly promote antizyme-mediated degradation of ornithine decarboxylase by the proteasome” (Microbial Cell, 2015).
Where a chain is given by its changes, count along the chain named.

How the values were obtained:
26S proteasome = biological target: T1, 26S proteasome (Saccharomyces cerevisiae, UniProt P23724+P30656); experiment: Suc-LLVY-AMC hydrolysis; format: biochemical; conditions: 1 mM ATP; 1 mM DTT; 5 mM MgCl2; pH 7.8; weak effect, site unknown
T1 construct: gene PRE2; anti-Flag beads; singly and doubly capped, some free 20S; with Proteasome subunit beta type-4; Proteasome subunit beta type-1; Proteasome subunit beta type-2; Proteasome subunit beta type-3; Proteasome subunit beta type-7; Proteasome subunit alpha type-1; Proteasome subunit alpha type-2; Proteasome subunit alpha type-3; Proteasome subunit alpha type-4; Proteasome subunit alpha type-5; Proteasome subunit alpha type-6; Proteasome subunit alpha type-7

[1] = biological target: T2, 6His-Oaz1 (antizyme, OAZ) (Saccharomyces cerevisiae, UniProt Q02803); experiment: [3H]-spermidine retention by 6His-tagged protein; format: binding; conditions: labelled compound
T2 construct: full-length, in-frame OAZ1 (no ribosomal frameshift needed), 6His tag, from E. coli Rosetta (plasmid pDG240)
T2 sequence (Q02803 1-292): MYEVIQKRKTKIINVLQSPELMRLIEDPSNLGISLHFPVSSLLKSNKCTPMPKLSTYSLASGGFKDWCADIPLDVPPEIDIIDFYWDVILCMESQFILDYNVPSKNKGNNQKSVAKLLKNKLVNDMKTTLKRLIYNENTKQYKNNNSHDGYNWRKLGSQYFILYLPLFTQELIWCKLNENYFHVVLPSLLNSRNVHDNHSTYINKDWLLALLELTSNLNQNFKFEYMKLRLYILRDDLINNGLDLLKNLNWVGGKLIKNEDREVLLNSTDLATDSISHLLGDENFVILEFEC

[2] = biological target: T3, 6His-Oaz1 (antizyme, OAZ) (Saccharomyces cerevisiae, UniProt Q02803, L245A/L246A/K247A/W251A); experiment: [3H]-spermidine retention by 6His-tagged protein; format: binding; conditions: labelled compound
T3 construct: full-length, in-frame OAZ1 (no ribosomal frameshift needed), 6His tag, from E. coli Rosetta (plasmid pDG240)
T3 sequence (Q02803 1-292 L245A/L246A/K247A/W251A): T2 sequence (Q02803 1-292) with L245A, L246A, K247A, W251A

[3] = biological target: T2, 6His-Oaz1 (antizyme, OAZ); experiment: competition with [3H]-spermidine; format: binding; conditions: 10 µM [3H]-spermidine; competitive

NCCCNCCCCNCCCN [spm, spermine]
activity versus spermine concentration (26S proteasome): A small reduction in proteasome activity was observed with polyamine addition

NCCCCNCCCN [spd, spermidine]
[3H]-spermidine retention by 6His-tagged protein [1]: retention of [^3H]-spermidine by 6His-Oaz1 or 6His-Oaz1-4res
[3H]-spermidine retention by 6His-tagged protein [2]: Oaz1-4res bound [^3H]-spermidine with a similar efficiency as its wild-type counterpart

CC(=O)NCCCNCCCCN [N1-acetylspermidine]
competition with [3H]-spermidine [3]: mono-acetylspermidine derivatives: "mono-acetylated spermidine derivatives showed a clearly reduced binding to antizyme"

CC(=O)NCCCCNCCCN [N8-acetylspermidine]
competition with [3H]-spermidine [3]: mono-acetylated spermidine derivatives showed a clearly reduced binding to antizyme
